Structures are written as SMILES.

A word on the IC50: it is the concentration that gives 50% inhibition. Read a low IC50 as inhibition by little substance. In general, inhibition refers to the drop in the measured response relative to a control, in per cent.

The target in one assay is T1, PLpro of SARS-CoV-2 (Severe acute respiratory syndrome coronavirus 2, UniProt P0DTD1). Put plainly: IC50 determination of inhibition of PLpro activity (RLRGG-AMC substrate). It is filed as biochemical. Conditions: 13 concentrations 100 μM to 0.0244 μM, GraphPad Prism.
Regarding `COC(=O)c1cccc(Nc2c(-c3ccc(N4CCOCC4)cc3)nc3cnccn23)c1` [P141, methyl 3-[[2-(4-morpholin-4-ylphenyl)imidazo [1,2-a]pyrazin-3-yl]amino]benzoate], half-maximal inhibition (IC50) required 38.1 µM.

Take `O=C(O)c1ccc(Nc2c(-c3ccc(Cl)cc3)nc3cnccn23)cc1` [P18224, 4-[[2-(4-chlorophenyl)imidazo[1,2-a]pyrazin-3-yl]amino] benzoic acid]: the half-inhibitory concentration (IC50) worked out at 38.3 µM.

`COc1ccc(-c2nc3cnccn3c2Nc2ccc(C(N)=O)cc2)cc1` [P19442, 4-[[2-(4-methoxyphenyl)imidazo[1,2-a]pyrazin-3-yl]amino] benzamide]: the half-inhibitory concentration (IC50) was 43.2 µM. The IC50 values of the last two molecules are within 1.5-fold of each other.

Consider `CNC(=O)c1cccc(Nc2c(-c3ccc(N(C)C)cc3)nc3cnccn23)c1` [P19443, 3-[[2-[4-(dimethyl-amino)phenyl]imidazo [1,2-a]pyrazin-3-yl]amino]-N-methyl-benzamide], for which the midpoint of inhibition, the IC50, lay at 31.1 µM.

A further assay addresses T1, PLpro of SARS-CoV-2. Put plainly: Enzyme activity test in vitro: inhibition of PLpro at fixed concentration 50 μM (RLRGG-AMC substrate). The assay is classed as biochemical. Conditions: compound 50 μM, 10 min preincubation at 37° C., Table 1; read-out: Inhibition rate at 50 μM (%).
On to `COC(=O)c1cccc(Nc2c(-c3ccc(N4CCOCC4)cc3)nc3cnccn23)c1` [P141, methyl 3-[[2-(4-morpholin-4-ylphenyl)imidazo [1,2-a]pyrazin-3-yl]amino]benzoate], for which the inhibition at 50 µM was 63.8%.

`O=C(O)c1ccc(Nc2c(-c3ccc(Cl)cc3)nc3cnccn23)cc1` [P18224, 4-[[2-(4-chlorophenyl)imidazo[1,2-a]pyrazin-3-yl]amino] benzoic acid]: the inhibition at 50 µM was determined as 54.6%.

As for `COc1ccc(-c2nc3cnccn3c2Nc2ccc(C(N)=O)cc2)cc1` [P19442, 4-[[2-(4-methoxyphenyl)imidazo[1,2-a]pyrazin-3-yl]amino] benzamide], the inhibition at 50 µM amounted to 61.1%.

With `CNC(=O)c1cccc(Nc2c(-c3ccc(N(C)C)cc3)nc3cnccn23)c1` [P19443, 3-[[2-[4-(dimethyl-amino)phenyl]imidazo [1,2-a]pyrazin-3-yl]amino]-N-methyl-benzamide], the inhibition at 50 µM came to 53%.

Staying with this assay, now noted: read-out: Inhibition rate at 50 μM (%).
In the case of `CCOC(=O)c1ccc(Nc2c(-c3cccc(Cl)c3)nc3cnccn23)cc1` [P22522, ethyl 4-[[2-(3-chlorophenyl)imidazo[1,2-a]pyrazin-3-yl]amino] benzoate], the inhibition at 50 µM was determined as 32.3%.

As to `CCOC(=O)c1ccc(Nc2c(-c3ccc(OC)cc3)nc3cnccn23)cc1` [P22531, ethyl 4-[[2-(4-methoxy-phenyl)imidazo[1,2-a]pyrazin-3-yl]amino] benzoate], the inhibition at 50 µM was 31.9%.

As to `CCOC(=O)c1ccc(Nc2c(-c3cccc(Br)c3)nc3cnccn23)cc1` [P22532, ethyl 4-[[2-(3-bromophenyl)imidazo[1,2-a]pyrazin-3-yl]amino] benzoate], the inhibition at 50 µM worked out at 24.2%.

In the case of `CCOC(=O)c1ccc(Nc2c(-c3ccc(SC)cc3)nc3cnccn23)cc1` [P22541, ethyl 4-[[2-(4-methyl-sulfanylphenyl)imidazo [1,2-a]pyrazin-3-yl]amino]benzoate], the inhibition at 50 µM came to 33.8%.

Turning to `CCOC(=O)c1ccc(Nc2c(-c3cc(Br)ccc3O)nc3cnccn23)cc1` [P22542, ethyl 4-[[2-(5-bromo-2-hydroxyphenyl)imidazo [1,2-a]pyrazin-3-yl]amino]benzoate], the inhibition at 50 µM was 31.5%.

As for `CCOC(=O)c1ccc(Nc2c(-c3ccc(O)c(OC)c3)nc3cnccn23)cc1` [P22551, ethyl 4-[[2-(4-hydroxy-3-methoxyphenyl)imidazo[1,2-a]pyrazin-3-yl]amino]benzoate], the inhibition at 50 µM is 21%.

Turning to `CCOC(=O)c1ccc(Nc2c(-c3cccc(O)c3)nc3cnccn23)cc1` [P22552, ethyl 4-[[2-(3-hydroxy-phenyl)imidazo[1,2-a]pyrazin-3-yl]amino] benzoate], the inhibition at 50 µM stood at 19.9%.

With `COC(=O)c1ccc(-c2nc3cnccn3c2NC2CCCCC2)cc1` [P24359, methyl 4-[3-(cyclohexylamino)imidazo[1,2-a]pyrazin-2-yl]benzoate], the inhibition at 50 µM was found to be 37.1%.

For `CCOC(=O)c1ccc(Nc2c(-c3ccc(N4CCOCC4)cc3)nc3cnccn23)cc1` [P24803, ethyl 4-[[2-(4-morpholin-4-ylphenyl)imidazo [1,2-a]pyrazin-3-yl]amino]benzoate], the inhibition at 50 µM was 24.7%.

For the molecule `O=C(O)c1ccc(Nc2c(-c3ccc(N4CCOCC4)cc3)nc3cnccn23)cc1` [P24813, 4-[[2-(4-morpholin-4-ylphenyl)imidazo [1,2-a]pyrazin-3-yl]amino]benzoic acid], the inhibition at 50 µM was 31.9%.

On to `COC(=O)c1cccc(Nc2c(-c3ccc([N+](=O)[O-])cc3)nc3cnccn23)c1` [P24823, methyl 3-[[2-(4-nitrophenyl)imidazo[1,2-a]pyrazin-3-yl]amino] benzoate], for which the inhibition at 50 µM amounted to 31.2%.

In the case of `O=C(O)c1cccc(Nc2c(-c3ccc(N4CCOCC4)cc3)nc3cnccn23)c1` [P24833, 3-[[2-(4-morpholin-4-ylphenyl)imidazo [1,2-a]pyrazin-3-yl]amino]benzoic acid], the inhibition at 50 µM was found to be 35.1%.

For `COc1ccc(-c2nc3cnccn3c2Nc2ccc3c(c2)OCCO3)cc1OC` [P24852, N-(2,3-dihydro-1,4-benzodioxin-6-yl)-2-(3,4-dimethoxy-phenyl)imidazo[1,2-a]pyrazin-3-amine], the inhibition at 50 µM is 24.9%.

With `COC(=O)c1ccc(-c2nc3cnccn3c2Nc2ccc3c(c2)OCCO3)cc1` [P24862, methyl 4-[3-(2,3-dihydro-1,4-benzodioxin-6-ylamino)imidazo[1,2-a]pyrazin-2-yl] benzoate], the inhibition at 50 µM came to 30.1%.

Consider `COC(=O)c1ccc(-c2nc3cnccn3c2Nc2ccc3c(c2)OCO3)cc1` [P24872, methyl 4-[3-(1,3-benzodioxol-5-ylamino)imidazo [1,2-a]pyrazin-2-yl]benzoate], for which the inhibition at 50 µM was determined as 27.2%.

As to `Fc1ccc(-c2nc3cnccn3c2Nc2ccc3c(c2)OCO3)cc1` [P28366, N-(1,3-benzodioxol-5-yl)-2-(4-fluoro-phenyl)imidazo[1,2-a]pyrazin-3-amine], the inhibition at 50 µM was determined as 36.3%.

As to `COC(=O)c1ccc(-c2nc3cnccn3c2Nc2ccc(OC)cc2)cc1` [P28376, methyl 4-[3-(4-methoxy-anilino)imidazo[1,2-a]pyrazin-2-yl]benzoate], the inhibition at 50 µM came to 28.5%.

As to `CCNC(=O)c1cccc(Nc2c(-c3ccc(OC)cc3)nc3cnccn23)c1` [P28734, N-ethyl-3-[[2-(4-methoxyphenyl)imidazo[1,2-a]pyrazin-3-yl]amino]benzamide], the inhibition at 50 µM turned out to be 41%.

For `Cc1cccc(C)c1Nc1c(-c2ccccc2)nc2cnccn12` [P32333, N-(2,6-dimethylphenyl)-2-phenylimidazo [1,2-a]pyrazin-3-amine], the inhibition at 50 µM came to 35.8%.

For the molecule `COC(=O)c1cccc(Nc2c(-c3cccc(Br)c3)nc3cnccn23)c1` [P32343, methyl 3-[[2-(3-bromophenyl)imidazo[1,2-a]pyrazin-3-yl]amino] benzoate], the inhibition at 50 µM amounted to 12.9%.

Regarding `CCc1cccc(C)c1Nc1c(-c2ccc(C(=O)OC)cc2)nc2cnccn12` [P36232, methyl 4-[3-(2-ethyl-6-methylanilino)imidazo [1,2-a]pyrazin-2-yl]benzoate], the inhibition at 50 µM came to 20.3%.

As for `COC(=O)c1ccc(-c2nc3cnccn3c2NC2CCCC2)cc1` [P37287, methyl 4-[3-(cyclopentyl-amino)imidazo[1,2-a]pyrazin-2-yl] benzoate], the inhibition at 50 µM was 21%.

As to `COC(=O)c1cccc(Nc2c(-c3cccc(O)c3)nc3cnccn23)c1` [P37288, methyl 3-[[2-(3-hydroxy-phenyl)imidazo[1,2-a]pyrazin-3-yl]amino]benzoate], the inhibition at 50 µM amounted to 13.2%.

Consider `COC(=O)c1ccc(-c2nc3cnccn3c2Nc2ccc(C(C)C)cc2)cc1` [P37297, methyl 4-[3-(4-propan-2-ylanilino)imidazo[1,2-a]pyrazin-2-yl] benzoate], for which the inhibition at 50 µM amounted to 22.3%.

Take `CSc1ccc(-c2nc3cnccn3c2Nc2cccc(C(=O)O)c2)cc1` [P37298, 3-[[2-(4-methyl-sulfanylphenyl)imidazo [1,2-a]pyrazin-3-yl]amino]benzoic acid]: the inhibition at 50 µM came to 33.6%.

`COC(=O)c1ccc(-c2nc3cnccn3c2Nc2c(C)cccc2C)cc1` [P37307, methyl 4-[3-(2,6-dimethyl-anilino)imidazo[1,2-a]pyrazin-2-yl] benzoate]: the inhibition at 50 µM turned out to be 43.4%.

In the case of `Cc1ccc(-c2nc3cnccn3c2Nc2cccc(C(=O)O)c2)cc1` [P37308, 3-[[2-(4-methyl-phenyl)imidazo[1,2-a]pyrazin-3-yl]amino] benzoic acid], the inhibition at 50 µM is 20.8%.

As to `COC(=O)c1ccc(-c2nc3cnccn3c2Nc2cccc(C(F)(F)F)c2)cc1` [P37317, methyl 4-[3-[3-(trifluoro-methyl)anilino]imidazo [1,2-a]pyrazin-2-yl]benzoate], the inhibition at 50 µM was determined as 27.6%.

With `O=C(O)c1cccc(Nc2c(-c3ccccc3O)nc3cnccn23)c1` [P37318, 3-[[2-(2-hydroxy-phenyl)imidazo[1,2-a]pyrazin-3-yl]amino] benzoic acid], the inhibition at 50 µM came out at 15.9%.

As for `COC(=O)c1cccc(Nc2c(-c3ccc(O)cc3)nc3cnccn23)c1` [P37327, methyl 3-[[2-(4-hydroxy-phenyl)imidazo[1,2-a]pyrazin-3-yl]amino] benzoate], the inhibition at 50 µM turned out to be 48.5%.

For the molecule `O=C(O)c1cccc(Nc2c(-c3ccc([N+](=O)[O-])cc3)nc3cnccn23)c1` [P37328, 3-[[2-(4-nitrophenyl)imidazo[1,2-a]pyrazin-3-yl]amino] benzoic acid], the inhibition at 50 µM turned out to be 17.2%.

Consider `COC(=O)c1cccc(Nc2c(-c3ccc(Cl)cc3)nc3cnccn23)c1` [P37337, methyl 3-[[2-(4-chlorophenyl)imidazo[1,2-a]pyrazin-3-yl]amino] benzoate], for which the inhibition at 50 µM stood at 23%.

Turning to `O=C(O)c1cccc(Nc2c(-c3cccc(O)c3)nc3cnccn23)c1` [P37338, 3-[[2-(3-hydroxy-phenyl)imidazo[1,2-a]pyrazin-3-yl]amino] benzoic acid], the inhibition at 50 µM amounted to 11.7%.

Regarding `COC(=O)c1cccc(Nc2c(-c3ccccc3O)nc3cnccn23)c1` [P37347, methyl 3-[[2-(2-hydroxy-phenyl)imidazo[1,2-a]pyrazin-3-yl]amino] benzoate], the inhibition at 50 µM is 25%.

Turning to `CCc1cccc(C)c1Nc1c(-c2ccc(N)cc2)nc2cnccn12` [P37348, 2-(4-aminophenyl)-N-(2-ethyl-6-methyl-phenyl)imidazo[1,2-a]pyrazin-3-amine], the inhibition at 50 µM came to 16%.

For `Fc1ccc(-c2nc3cnccn3c2Nc2ccc(Cl)cc2)cc1` [P37356, N-(4-chlorophenyl)-2-(4-fluorophenyl) imidazo[1,2-a] pyrazin-3-amine], the inhibition at 50 µM worked out at 3.18%.

On to `COC(=O)c1cccc(Nc2c(-c3ccc(F)cc3)nc3cnccn23)c1` [P37357, methyl 3-[[2-(4-fluorophenyl)imidazo[1,2-a]pyrazin-3-yl]amino] benzoate], for which the inhibition at 50 µM was determined as 4.32%.

Source of the values: US20250032485A1, “APPLICATION OF IMIDAZO [1,2-A] PYRAZINE COMPOUNDS OR THEIR PHARMACEUTICALLY ACCEPTABLE SALTS IN THE PREPARATION OF ANTI-CORONAVIRUS DRUGS” (GUANGZHOU MEDICAL UNIVERSITY, priority 2023, published 2025).
